These results are taken from patent US8691772B2, “HSP60, HSP60 peptides and T cell vaccines for immunomodulation” (Yeda Research and Development Co. Ltd., priority 2005, dated 2014).

Ends that are not written are not given here.

One assay concerns SOCS3. Kind of assay: SOCS3 expression in human T cells (immunoblot). It counts as cell-based. Conditions: for effect of blocker on HSP60-induced SOCS3 activation: human T cells pre-treated with blocker. On the technique in general: Immunoblotting shows a protein as a band on a membrane.
In the next assay the test system is HSP60. Kind of assay: HSP60 expression in activated T cells by western blot. It counts as cell-based, Lewis rats. Conditions: LNC with Con A; A2b clone with peptide, 72 hr. On the procedure:
Western blotting. Cell lysates of resting or activated T cells were prepared by treatment for 15 minutes in the following lysis buffer: NP40 1%, NaCl 0.9%, Tris 50 mM, EDTA 1 mM, PMSF 0.4 mM, pepstatin A 4 μg/ml, leupeptin 4 μg/ml and aprotinin 4 μg/ml. The lysates were centrifuged for 15 min at 14000 rpm and the protein concentration in the supernatant was determined using a BCA protein assay kit (Pierce, Rockford, Ill., USA). The lysates were subjected to PAGE-SDS using a mini-gel apparatus (Bio-Rad Laboratories, Hercules, Calif.); 100 μg of each sample were loaded per well. Two identical gels were run each time in parallel: one gel was stained with Coomassie Brilliant Blue R-250 according to the manufacturer's protocol (Bio-Rad) and the other was electro-transferred to nitrocellulose membranes (Schleicher and Schuell, Dassel, Germany).
The nitrocellulose membranes were washed with PBS and then blocked for 1 hr with 2% bovine serum albumin (Sigma), 2.5% milk powder (Bio-Rad), Tris (Sigma) pH 7.5 10 mM, NaCl 150 mM and 0.02% thimerosal (Sigma). […] Finally, the membranes were developed using the Western Blotting Luminol Reagent (Santa Cruz Biotechnology Inc., Santa Cruz, Calif., USA), exposed to X-ray film and quantified using the NIH Image 1.63 program (National Institutes of Health, USA). Size was determined using pre-stained broad-range protein standard markers (Bio-Rad).

Assay [1] deals with activated A2b T cells. Kind of assay: Anti-ergotypic cytokine response (cytokine assays). It counts as cell-based, Lewis rats. The following applies: rats vaccinated with peptide in IFA; response to activated A2b T cells. The text has this:
(§1) T-cell lines and clones T-cell lines were raised and expanded using antigen presenting cells (APC) and antigens or peptides as described (Mor et al., 1992). Three Lewis rat T-cell lines were used in our experiments: Anti-HSP60, raised against recombinant human HSP60 (human HSP60 is 97% identical to rat HSP60 at the aa level); Anti-p277, raised against the p277 peptide of human HSP60 (96% identical its rat counterpart at the aa level) and Anti-MBP, raised against guinea pig MBP. For ergotypic stimulation, the A2b T-cell clone, specific for the 180-188 epitope of HSP65 (van Eden et al., 1988) was used; similar results were obtained when other rat T-cell clones were used as targets. A2b expresses MHC-I molecules constitutively and CD80, CD86 and MHC-II molecules upon activation, and can present peptide epitopes to T cells. Activated A2b cells were used on day 3 of their stimulation, and resting A2b cells were used on day 14-16 of their rest cycle, unless stated otherwise.
Cytokine assays. Supernatants were collected after 72 hr of stimulation with test antigens or stimulator cells. Pharmingen's OPTEIA IL-10, IL-4 and IFNγ kits (Pharmingen, San Diego, USA) and the TGFβ1 Emax® ImmunoAssay System (Promega, Madison, USA) were used to quantify cytokine release to culture supernatants, as previously described (Quintana et al., 2002b). […]

In assay [2] the test system is activated A2b T cells. Kind of assay: Anti-ergotypic T-cell proliferation assay. It counts as cell-based, Lewis rats. The following applies: rats vaccinated with peptide in IFA, 26 days after AA induction; compared to Mt3.
Text: as §1
DNA and peptide vaccination. The vectors containing the full-length cDNA of the human hsp60 gene (pHSP60) or the cDNA corresponding to aa 1-140 (pI) or aa 130-260 (pII) have been previously described (Quintana et al., 2002, Quintana et al., 2002b, Quintana et al., 2003, Quintana et al., 2000). […]
Anti-ergotypic T-cell proliferation assay. […] The cultures were harvested and cpm were determined using a beta counter. […]

The next assay relates to AA. Conditions: DNA or peptide vaccination; Quintana et al., Ragno et al.; cited from earlier work.
The next assay relates to ConA-induced hepatitis. Nature of the assay: ConA-induced hepatitis (acute liver injury). It counts as in vivo, BALB/c mice.
Assay [3] has as its system Mouse splenic purified T cells. Nature of the assay: Anti-CD3-induced T-cell proliferation. It counts as cell-based, C57BL/6J mice. The following applies: for anti-CD3-induced T-cell proliferation: summary of Table 1. An excerpt:
Purification of naïve T cells: Mouse spleen-cell suspensions were depleted of red blood cells by treatment with red blood lysis buffer (Sigma, St Louis, USA). T cells were then purified by negative selection with a T-cell isolation kit containing biotin-conjugated monoclonal antibodies to CD11b, CD45R, DX5 and Ter-119 (Miltenyi Biotec, Bergisch Gladbach, Germany). This procedure routinely yielded T cell preparations that were >95% positive for the CD3 marker as determined by FACS analysis.
Cells and medium: The T-cells cultures were set in RPMI-1640 supplemented with 5% FCS (Hyclon Logan, Utah) 100 U/ml penicillin, 100 μg/ml streptomycin, 50 μM 2β-ME, 12.5 mM hepes, 2 mM L-glutamine, 1 mM sodium pyruvate and non essential amino acids (biological industries 01-340-1 diluted 1:100).
The hamster anti-mouse anti-CD3 antibody was collected by TCA precipitation from 2C11 hybridoma supernatant. For the proliferation assay, non-tissue culture-treated polystyrene flat-bottom 96-well microtiter plates (Nunc 269787) were incubated overnight at 4° C. with 0.5-2 μg/ml anti-CD3 antibody.
(§2) T-cell proliferation: Mouse splenic purified T cells (1×10^5) were pre-incubated with the p277 analogs p277(Val^6Val^11) (SEQ ID NO:2) or p277(Ser^6Ser^11) (SEQ ID NO:3) at the indicated concentrations for 30-60 min, and transferred to anti-CD3 coated wells in triplicate or quadruplicate in 200 μl culture medium. After 72 h of incubation (37° C., 5% CO2) the cells were pulsed with 1 μCi [^3H]-thymidine for 7 h, and [^3H] thymidine incorporation was measured using a 96-well plate beta-counter. The mean cpm±Standard Error were calculated for each triplicate or quadruplicate.

The test system of assay [4] is Mouse splenic purified T cells. Kind of assay: Anti-CD3-induced IFNγ secretion (ELISA). It counts as cell-based, C57BL/6J mice. Conditions: for anti-CD3-induced IFNγ secretion: summary of Table 1. On the procedure:
as §2
Interferon-gamma (IFNγ) secretion to the culture media was determined by using an ELISA assay (OptiEIA kits, BD Pharmingen and Pierce Endogen) following the manufacturer's instructions. Standard curves were established using mouse recombinant cytokines. The assay detection limit was 16-32 pg/ml.

A further assay deals with diabetes. The following applies: single subcutaneous injection in mineral oil; cited from earlier work.
The test system of the next assay is CD4^+CD25^+ T cells. Nature of the assay: Co-culture of treated CD4+CD25+ T cells with CD4+CD25- T cells. It counts as cell-based, human. Conditions: CD4+CD25+ treated with peptide 1 ng/ml, 2 hours; co-culture with untreated CD4+CD25-.
[5] abbreviates: i.p. 330 μl, 500 ng/ml, 18 and 1 hr prior to ConA, 24 hr after ConA.

Consider `N#C/C(=C/c1ccc(O)c(O)c1)C(=O)NCc1ccccc1` [AG490, reference compound], for which the “effect of blocker on HSP60-induced SOCS3 activation” value with SOCS3 is recorded as “abrogated the effect of HSP60on SOCS3 expression”.
Concanavalin A [Con A]: the “expression levels of HSP60 (western blot)” value with HSP60 is “triggered a similar increase in the expression levels of HSP60”.
Turning to EESNTFGLQLELTEG [Mt176-90], in the assay with HSP60, the “expression levels of HSP60 (western blot)” value is on record as “up-regulation of HSP60”.
Consider KFGADARALMLQGVDLLADA [Hu3], for which, in the assay with activated A2b T cells [1], the “anti-ergotypic cytokine secretion (IFNγ, TGFβ1, IL-10, IL-4)” value was “secreted IFNγ and TGFβ1, but not IL-10 or IL-4”. Also, the “anti-ergotypic proliferative response of LNC” value with activated A2b T cells [2] is recorded as “significantly (p<0.05) more effective in inducing an anti-ergotypic proliferative response”. Also, the “inhibition of AA by vaccination” value in the assay on AA is given as “can also inhibit AA”.
Take “VAGGGVTLLQAAPTLDELKLEG [MTp277, reference compound]”: in the assay with ConA-induced hepatitis (2 hr after ConA), the “serum level of IL-10” value is recorded as “did not seem to have a significant effect on the levels of cytokines” and the “serum level of TNF-α” value is listed as “did not seem to have a significant effect on the levels of cytokines”.
“VLGGGSALLRSIPALDSLTPANED [p277(Ser^6Ser^11)]”: in [3], the “anti-CD3-induced T-cell proliferation” value was “inhibited T-cell proliferation and IFNγ secretion”. Moreover, the “Percent Inhibition of IFNγ secretion” value in assay [4] (peptide 0.1 ng/ml) was 86.6% ± 11.3%; in assay [4] (peptide 1 ng/ml), 86.4% ± 1.3%; in assay [4] (peptide 10 ng/ml), 82.6% ± 4.75%. In assay [4], the “anti-CD3-induced IFNγ secretion” value is “inhibited T-cell proliferation and IFNγ secretion”. The incidence of diabetes entry with diabetes is listed as “did not reduce the incidence of diabetes”.
“VLGGGVALLRVIPALDSLTPANED [p277(Val^6Val^11)]”: the “serum level of IL-6” value in the assay with ConA-induced hepatitis (2 hr after ConA) is “increased the level of IL-6”. For the same compound, in the assay with ConA-induced hepatitis (2 hr after ConA), the “serum level of IL-10” value was “significantly increased”. In addition, in the assay with ConA-induced hepatitis (2 hr after ConA), the “serum level of TNF-α” value is “significantly decreased”. For the same compound, the “serum ALT” value with ConA-induced hepatitis (setting [5]) was “significantly inhibited ALT and AST secretion”. Also, in the assay with ConA-induced hepatitis (setting [5]), the “serum AST” value is “significantly inhibited ALT and AST secretion”. In addition, the “Percent Inhibition of proliferation” value in assay [3] (peptide 0.1 ng/ml) is recorded as 50% ± 19%; in assay [3] (peptide 1 ng/ml) it was 73% ± 7.5%; in assay [3] (peptide 10 ng/ml), 69% ± 14%. Further, the “anti-CD3-induced T-cell proliferation” value in [3] is “inhibited T-cell proliferation and IFNγ secretion”. The “expression of activated SOCS3” value in the assay on SOCS3 is reported as “induced a marked expression of activated SOCS3 in T cells”. In addition, the “Percent Inhibition of IFNγ secretion” value in assay [4] (peptide 0.1 ng/ml) is recorded as 94% ± 0.81%; in assay [4] (peptide 1 ng/ml) it was 88.9% ± 3.4%; in [4] (peptide 10 ng/ml) it was 86.7% ± 8.8%. The “anti-CD3-induced IFNγ secretion” value in assay [4] was “inhibited T-cell proliferation and IFNγ secretion”. Moreover, the “IFN-γ and TNF-α secretion, and proliferation in co-culture” value in the assay with CD4^+CD25^+ T cells was “significantly inhibited IFN-γ and TNF-α secretion, and proliferation”.
For the compound pertussis toxin [reference compound], the “effect of blocker on HSP60-induced SOCS3 activation” value in the assay with SOCS3 is listed as “had no effect”.
polymyxin B [PMB, reference compound]: the “effect of blocker on LPS-induced SOCS3 activation” value with SOCS3 (LPS 100 ng/ml) was “inhibited by PMB”.
